Measured values as given in PubChem BioAssay (NCI).
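Following 48 hours of exposure in 96-well plates, responses at five concentrations were used to interpolate endpoints linearly. TGI: total growth inhibition.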

Tests used:
Assay in all cases: NCI tumour cell line growth inhibition, 48 h
[1] = test system: BT-549 breast
[2] = test system: COLO 205 colon
[3] = test system: HCT-116 colon
[4] = test system: NCI-H23 lung
[5] = test system: MDA-MB-231 breast
[6] = test system: UO-31 renal
[7] = test system: 786-0 renal
[8] = test system: UACC-62 melanoma
[9] = test system: MCF7 breast
[10] = test system: NCI-H226 lung
[11] = test system: NCI/ADR-RES ovarian
[12] = test system: T-47D breast
[13] = test system: SNB-19 CNS
[14] = test system: SW-620 colon
[15] = test system: MDA-N
[16] = test system: EKVX NSCLC
[17] = test system: SN12C renal
[18] = test system: MOLT-4 leukemia
[19] = test system: HT29 colon
[20] = test system: HL-60(TB) leukemia
[21] = test system: M14 melanoma
[22] = test system: SK-MEL-2 melanoma
[23] = test system: MALME-3M melanoma
[24] = test system: OVCAR-8 ovarian
[25] = test system: LOX IMVI melanoma
[26] = test system: IGROV1 ovarian
[27] = test system: ACHN renal
[28] = test system: SK-MEL-28 melanoma
[29] = test system: U251 CNS
[30] = test system: NCI-H522 lung
[31] = test system: HOP-92 NSCLC
[32] = test system: UACC-257 melanoma
[33] = test system: RPMI-8226 leukemia
[34] = test system: TK-10 renal
[35] = test system: SF-295 CNS
[36] = test system: KM12 colon
[37] = test system: HS 578T breast
[38] = test system: SNB-75 CNS
[39] = test system: SK-OV-3 ovarian
[40] = test system: SK-MEL-5 melanoma
[41] = test system: SF-539 CNS
[42] = test system: PC-3 prostate
[43] = test system: NCI-H460 lung
[44] = test system: OVCAR-3 ovarian
[45] = test system: SR leukemia
[46] = test system: CAKI-1 renal
[47] = test system: HCC-2998 colon
[48] = test system: HOP-62 NSCLC
[49] = test system: DU-145 prostate
[50] = test system: CCRF-CEM leukemia
[51] = test system: MDA-MB-435
[52] = test system: A549 NSCLC
[53] = test system: OVCAR-4 ovarian
[54] = test system: OVCAR-5 ovarian
[55] = test system: HCT-15 colon
[56] = test system: SF-268 CNS
[57] = test system: A498 renal
[58] = test system: K-562 leukemia
[59] = test system: RXF 393 renal

## COc1ccc(C(=O)N2CCN(c3ccc4c(c3)OCC(=O)N4)CC2)cc1
[1]
  TGI: > 100 µM
[2]
  TGI: > 100 µM
[3]
  TGI: > 100 µM
[4]
  TGI: > 100 µM
[5]
  TGI: > 100 µM
[6]
  TGI: > 100 µM
[7]
  TGI: > 100 µM
[8]
  TGI: > 100 µM
[9]
  TGI: > 100 µM
[10]
  TGI: > 100 µM
[11]
  TGI: > 100 µM
[12]
  TGI: > 100 µM
[13]
  TGI: > 100 µM
[14]
  TGI: > 100 µM
[15]
  TGI: > 100 µM
[16]
  TGI: > 100 µM
[17]
  TGI: > 100 µM
[18]
  TGI: > 100 µM
[19]
  TGI: > 100 µM
[20]
  TGI: > 100 µM
[21]
  TGI: > 100 µM
[22]
  TGI: > 100 µM
[23]
  TGI: > 100 µM
[24]
  TGI: > 100 µM
[25]
  TGI: > 100 µM
[26]
  TGI: > 100 µM
[27]
  TGI: > 100 µM
[28]
  TGI: > 100 µM
[29]
  TGI: > 100 µM
[30]
  TGI: > 100 µM
[31]
  TGI: > 100 µM
[32]
  TGI: > 100 µM
[33]
  TGI: > 100 µM
[34]
  TGI: > 100 µM
[35]
  TGI: > 100 µM
[36]
  TGI: > 100 µM
[37]
  TGI: > 100 µM
[38]
  TGI: > 100 µM
[39]
  TGI: > 100 µM
[40]
  TGI: > 100 µM
[41]
  TGI: > 100 µM
[42]
  TGI: > 100 µM
[43]
  TGI: > 100 µM
[44]
  TGI: > 100 µM
[45]
  TGI: > 100 µM
[46]
  TGI: > 100 µM
[47]
  TGI: > 100 µM
[48]
  TGI: > 100 µM
[49]
  TGI: > 100 µM
[50]
  TGI: > 100 µM
[51]
  TGI: > 100 µM
[52]
  TGI: > 100 µM
[53]
  TGI: > 100 µM
[54]
  TGI: > 100 µM
[55]
  TGI: > 100 µM
[56]
  TGI: > 100 µM

## COC(=O)[C@H]1[C@H](C(=O)OC)[C@@H](C)c2c(ccc3c2[nH]c2ccccc23)[C@@H]1C
[1]
  TGI: > 100 µM
[2]
  TGI: > 100 µM
[3]
  TGI: > 100 µM
[4]
  TGI: > 100 µM
[5]
  TGI: > 100 µM
[6]
  TGI: > 100 µM
[7]
  TGI: 61.5 µM
[57]
  TGI: > 100 µM
[8]
  TGI: > 100 µM
[9]
  TGI: > 100 µM
[10]
  TGI: > 100 µM
[11]
  TGI: > 100 µM
[12]
  TGI: > 100 µM
[13]
  TGI: > 100 µM
[14]
  TGI: > 100 µM
[15]
  TGI: > 100 µM
[16]
  TGI: > 100 µM
[17]
  TGI: 33.5 µM
[18]
  TGI: 6.7 µM
[19]
  TGI: > 100 µM
[20]
  TGI: > 100 µM
[58]
  TGI: > 100 µM
[21]
  TGI: > 100 µM
[22]
  TGI: > 100 µM
[23]
  TGI: > 100 µM
[24]
  TGI: > 100 µM
[25]
  TGI: > 100 µM
[26]
  TGI: > 100 µM
[27]
  TGI: > 100 µM
[28]
  TGI: > 100 µM
[29]
  TGI: > 100 µM
[30]
  TGI: > 100 µM
[31]
  TGI: > 100 µM
[32]
  TGI: 66.3 µM
[33]
  TGI: > 100 µM
[34]
  TGI: > 100 µM
[35]
  TGI: > 100 µM
[36]
  TGI: > 100 µM
[37]
  TGI: > 100 µM
[38]
  TGI: 68.7 µM
[39]
  TGI: > 100 µM
[40]
  TGI: > 100 µM
[41]
  TGI: > 100 µM
[42]
  TGI: > 100 µM
[43]
  TGI: > 100 µM
[44]
  TGI: > 100 µM
[45]
  TGI: > 100 µM
[46]
  TGI: > 100 µM
[48]
  TGI: > 100 µM
[49]
  TGI: > 100 µM
[50]
  TGI: > 100 µM
[51]
  TGI: > 100 µM
[52]
  TGI: > 100 µM
[53]
  TGI: > 100 µM
[54]
  TGI: > 100 µM
[55]
  TGI: > 100 µM
[56]
  TGI: > 100 µM
[59]
  TGI: 82.9 µM

## Oc1cc(Cl)cc2cc(Br)cnc12
[1]
  TGI: > 100 µM
[2]
  TGI: > 100 µM
[3]
  TGI: > 100 µM
[4]
  TGI: > 100 µM
[5]
  TGI: > 100 µM
[6]
  TGI: > 72.1 µM
[7]
  TGI: > 100 µM
[57]
  TGI: > 88.7 µM
[8]
  TGI: > 77.6 µM
[9]
  TGI: > 29.9 µM
[10]
  TGI: > 88.5 µM
[11]
  TGI: > 54.5 µM
[12]
  TGI: > 59.6 µM
[13]
  TGI: > 100 µM
[14]
  TGI: > 100 µM
[15]
  TGI: > 100 µM
[16]
  TGI: > 64.2 µM
[17]
  TGI: > 100 µM
[18]
  TGI: 6.96 µM
[19]
  TGI: > 100 µM
[20]
  TGI: 1.37 µM
[58]
  TGI: > 22.6 µM
[21]
  TGI: 6 µM
[23]
  TGI: 21 µM
[24]
  TGI: > 26.9 µM
[26]
  TGI: > 94.1 µM
[27]
  TGI: > 32.1 µM
[28]
  TGI: > 100 µM
[29]
  TGI: 98.1 µM
[30]
  TGI: > 69.9 µM
[31]
  TGI: > 100 µM
[32]
  TGI: > 23.9 µM
[33]
  TGI: 47.9 µM
[34]
  TGI: > 100 µM
[35]
  TGI: > 45.4 µM
[36]
  TGI: > 100 µM
[37]
  TGI: > 100 µM
[38]
  TGI: > 100 µM
[39]
  TGI: > 100 µM
[40]
  TGI: 3.24 µM
[41]
  TGI: > 100 µM
[42]
  TGI: > 100 µM
[43]
  TGI: > 57.7 µM
[44]
  TGI: 7.9 µM
[45]
  TGI: > 20.1 µM
[46]
  TGI: > 27.3 µM
[47]
  TGI: > 73.9 µM
[48]
  TGI: > 55.1 µM
[49]
  TGI: > 100 µM
[50]
  TGI: 9.51 µM
[51]
  TGI: > 100 µM
[52]
  TGI: > 42.6 µM
[53]
  TGI: > 100 µM
[54]
  TGI: > 100 µM
[55]
  TGI: > 100 µM
[56]
  TGI: > 48.1 µM
[59]
  TGI: 19.2 µM

## CCCn1cnc2c(NN=O)ncnc21
[1]
  TGI: > 100 µM
[2]
  TGI: > 100 µM
[3]
  TGI: > 100 µM
[4]
  TGI: > 100 µM
[5]
  TGI: > 100 µM
[6]
  TGI: > 100 µM
[7]
  TGI: > 100 µM
[57]
  TGI: > 100 µM
[8]
  TGI: > 100 µM
[9]
  TGI: > 100 µM
[10]
  TGI: > 100 µM
[11]
  TGI: > 100 µM
[12]
  TGI: > 100 µM
[13]
  TGI: > 100 µM
[14]
  TGI: > 100 µM
[15]
  TGI: > 100 µM
[16]
  TGI: > 100 µM
[18]
  TGI: > 100 µM
[19]
  TGI: > 100 µM
[20]
  TGI: > 100 µM
[58]
  TGI: > 100 µM
[21]
  TGI: > 100 µM
[23]
  TGI: > 100 µM
[24]
  TGI: > 100 µM
[26]
  TGI: > 100 µM
[27]
  TGI: > 100 µM
[28]
  TGI: > 100 µM
[29]
  TGI: > 100 µM
[30]
  TGI: > 100 µM
[31]
  TGI: > 100 µM
[33]
  TGI: > 100 µM
[34]
  TGI: > 100 µM
[36]
  TGI: > 100 µM
[37]
  TGI: > 100 µM
[38]
  TGI: > 100 µM
[40]
  TGI: > 100 µM
[41]
  TGI: > 100 µM
[42]
  TGI: > 100 µM
[43]
  TGI: > 100 µM
[44]
  TGI: > 100 µM
[45]
  TGI: > 100 µM
[46]
  TGI: > 100 µM
[47]
  TGI: > 100 µM
[48]
  TGI: > 100 µM
[49]
  TGI: > 100 µM
[51]
  TGI: > 100 µM
[53]
  TGI: > 100 µM
[54]
  TGI: > 100 µM
[55]
  TGI: > 100 µM
[56]
  TGI: > 100 µM
[59]
  TGI: > 100 µM
